Literature values, collected in patent US20180110792A1, “COMPOSITIONS AND METHODS FOR INHIBITING GLYCATION REACTIONS” (Access Business Group International LLC, priority 2016, published 2018).

Details: human, in vivo

N=C(N)NN [aminoguanadine]
adverse effects in clinical trials: demonstrated adverse effects in clinical trials
